These results are taken from US20020183297A1, “Pharmaceutical composition for the treatment of alopecia” (priority 2001, published 2002).

Assay [1] has as its system hair growth on scalp of subjects with baldness / hair loss. Briefly: compositions tested in humans (topical application to scalp). The assay is classed as in vivo, human. The note with it: summary statement; animals and humans / applied directly to scalp. The procedure:
The composition is applied to scalp ideally after thoroughly cleansing hair with soap and water to remove as much sebaceous secretions as possible. Sufficient quantity of the composition is applied to balding areas of scalp repeatedly, 1-2 times per day and applications continued for several days or weeks. It may be necessary, as it has been observed, to repeat the application frequently to keep the new follicular growth and to initiate further growth.
Finally, the compositions were tested in humans. Ten subjects with advanced male pattern baldness used test preparation #1 and #2 (five subjects each) as described above for a period of three weeks. […] Three female subjects with thinning hair used composition #3 and #4 for a period of five weeks daily.

Assay [2] has as its system stem cells. Briefly: tritiated thymidine labeling of stem cells (murine skin explants; label retaining cells in mice). The assay is classed as cell-based, mouse. The source says: The effectiveness of stimulant of stem cells can be readily evaluated using the technique of tritiated thymidine labeling. We studied the effectiveness of the invention on stimulation of stem cell populations by using the technique of tritiated thymidine labeling of stem cells. The effects of compositions described here were studied on explants of murine skin. Explant cultures were serially harvested at daily intervals for the first 4 days of exposure, and composition effects on ^3H-TdR (tritiated thymidine) incorporation assessed in accordance with standard techniques. Because of the slow- cycling nature of stem cells, repeated administration of tritiated thymidine is necessary. After the labeling, the cells are chased for four weeks wherein the stem cells retain the label longer and are thus quantitated comparatively to control.
In another series of experiments, a cohort of mice was continuously labeled for 2 weeks with ^3H- TdR and then allowed to rest for 4 weeks. Once labeled, cells that cycle slowly retained isotopes for an extended period of time. Twice daily, subcutaneous injections of ^3H-TdR were given to newborn mice over the first seven days of life resulting in the labeling of almost 100% of nuclei in mouse epidermis, hair follicles, sebaceous glands, fibroblasts, and endothelial cells. […]

For the compound `CC[C@H](CC[C@@H](C)[C@H]1CC[C@H]2[C@@H]3CC=C4C[C@@H](O)CC[C@]4(C)[C@H]3CC[C@]12C)C(C)C` [β-sitosterol], the growth of hair entry in assay [1] is listed as “enhance growth of hair”. For the same compound, in assay [2], the “activity of stem cells and/or bulge cells responsible for growth of hair” value is listed as “significantly enhances”.
